Assay results as given in patent publication US4031210A, “Antibiotic aminoglycosides, processes of preparation and pharmaceutical compositions” (Roussel-UCLAF, priority 1974, dated 1977).
Structures can show the parent of a compound that is named as a salt. Where two headings read alike, the source gives them in different places.

What was measured:
[1] = test system: Klebsiella Pneumonia No. 52145; test: In vivo antibacterial activity on experimental Klebsiella Pneumonia infection in mice; conditions: subcutaneous, 1, 5 and 24 hours after infection, 10 mice
Description: The antibacterial activity has been measured in vivo on an experimental Klebsiella Pneumonia infection.
40 male mice with a medium weight of 21 grams were divided in 4 series of 10 mice. An intraperitoneal infection with 0.5 ml of a Klebsiella Pneumonia No. 52145 culture in nutritive medium diluted to one thousandth with sterile water is conducted. Treatment is performed by a subcutaneous administration of the product of Example 2, (Product A) three times, (1 hour, 5 hours and 24 hours) after infection. The mortality rate at different times as indicated in the table was measured as well as the number of mice surviving after 8 days.

[2] = test system: Enterobacter aerogenes Co11; test: In vitro antibacterial activity, dilution method in liquid medium; type: cell-based; conditions: Klebsiella aerogenes, 37°, expressed as base, read-out: minimal inhibiting concentration (MIC)
Description: (§1) The antibacterial activity has been measured in vitro by the dilution method in liquid medium. A series of tubes is prepared in which is distributed the same quantity of nutritive medium. Increasing quantities of the antibiotic under study are distributed, then each tube is innoculated with a bacterial strain as indicated in the table. After a 18, 24 or 48 hour incubation in a 37° oven, inhibition of the bacterial growth is appraised by transillumination which determines the minimal inhibiting concentration (MIC) of the products expressed as μg/ml of base in the table. In the following table, the product of Example 2 is identified as Product A.

Escherichia coli 9 965 = test: as above; type: cell-based; conditions: 37°, expressed as base, read-out: minimal inhibiting concentration (MIC)
Description: as §1

[3] = test system: Staphylococcus aureus 40 481; test: as above; type: cell-based; conditions: 37°, expressed as base, read-out: minimal inhibiting concentration (MIC)
Description: as §1

Salmonella anatum 23 348 = test: as above; type: cell-based; conditions: Salmonella enterica, 23348, 37°, expressed as base, read-out: minimal inhibiting concentration (MIC)
Description: as §1

[4] = test system: Staphylococcus aureus 40 821; test: as above; type: cell-based; conditions: 37°, expressed as base, read-out: minimal inhibiting concentration (MIC)
Description: as §1

[5] = test system: Salmonella typhimurium 420; test: as above; type: cell-based; conditions: Salmonella enterica, 37°, expressed as base, read-out: minimal inhibiting concentration (MIC)
Description: as §1

[6] = test system: Enterobacter aerogenes Co86; test: as above; type: cell-based; conditions: Klebsiella aerogenes, 37°, expressed as base, read-out: minimal inhibiting concentration (MIC)
Description: as §1

[7] = test system: Streptococcus faecalis 99 F 74; test: as above; type: cell-based; conditions: Enterococcus faecalis, 99F74; 18 H incubation, 37°, expressed as base; read-out: minimal inhibiting concentration (MIC)
Description: as §1

[8] = test system: Staphylococcus aureus 40 511; test: as above; type: cell-based; conditions: 37°, expressed as base, read-out: minimal inhibiting concentration (MIC)
Description: as §1

[9] = test system: Serratia marcesens CoB 35; test: as above; type: cell-based; conditions: 37°, expressed as base, read-out: minimal inhibiting concentration (MIC)
Description: as §1

[10] = test system: Staphylococcus aureus 38 691; test: as above; type: cell-based; conditions: 37°, expressed as base, read-out: minimal inhibiting concentration (MIC)
Description: as §1

Escherichia coli 156 = test: as above; type: cell-based; conditions: 37°, expressed as base, read-out: minimal inhibiting concentration (MIC)
Description: as §1

Escherichia coli 9 911 = test: as above; type: cell-based; conditions: 37°, expressed as base, read-out: minimal inhibiting concentration (MIC)
Description: as §1

[11] = test system: Salmonella typhimurium 1 374; test: as above; type: cell-based; conditions: Salmonella enterica, 37°, expressed as base, read-out: minimal inhibiting concentration (MIC)
Description: as §1

[12] = total dose 0,03 mg (as free base)

CNC1CC(C)OC(OC2C(N)CC(N)C(OC3OC(CN)C(O)CC3N)C2O)C1O [Product A, 4-0-[2',6'-diamino 2', 3', 6'-tridesoxy α, D-ribohexopyranosyl] 6-0-[3"-methylamino 3",4",6"-tridesoxy α, D-xylohexopyranosyl] 2-desoxy streptamine sulfate]
Mortality at 5 H [1, 12]: 1
Survived to the eighth day (number of mice) [1, 12]: 9 mice
Survived to the eighth day (number of mice) ([1]; total dose 0,05 mg (as free base)): 10 mice
Survived to the eighth day (number of mice) ([1]; total dose 0,075 mg (as free base)): 10 mice
MIC ([2]; 18 H incubation): 0.4 µg/mL
MIC ([2]; 24 H incubation): 0.4 µg/mL
MIC ([2]; 48 H incubation): 1 µg/mL
MIC (Escherichia coli 9 965; 9965, 18 H incubation): 0.6 µg/mL
MIC (Escherichia coli 9 965; 9965, 24 H incubation): 1 µg/mL
MIC (Escherichia coli 9 965; 9965, 48 H incubation): 2 µg/mL
MIC ([3]; 40481, 18 H incubation): 0.1 µg/mL
MIC ([3]; 40481, 24 H incubation): 0.1 µg/mL
MIC ([3]; 40481, 48 H incubation): 0.2 µg/mL
MIC (Salmonella anatum 23 348; 18 H incubation): 1 µg/mL
MIC (Salmonella anatum 23 348; 24 H incubation): 3 µg/mL
MIC (Salmonella anatum 23 348; 48 H incubation): 15 µg/mL
MIC ([4]; 40821, 18 H incubation): 0.1 µg/mL
MIC ([4]; 40821, 24 H incubation): 0.1 µg/mL
MIC ([4]; 40821, 48 H incubation): 0.1 µg/mL
MIC ([5]; 18 H incubation): 2 µg/mL
MIC ([5]; 24 H incubation): 5 µg/mL
MIC ([5]; 48 H incubation): 20 µg/mL
MIC ([6]; 18 H incubation): 0.6 µg/mL
MIC ([6]; 24 H incubation): 0.6 µg/mL
MIC ([6]; 48 H incubation): 0.6 µg/mL
MIC [7]: > 20 µg/mL
MIC ([8]; 40511, 18 H incubation): 0.2 µg/mL
MIC ([8]; 40511, 24 H incubation): 0.6 µg/mL
MIC ([8]; 40511, 48 H incubation): 1 µg/mL
MIC ([9]; COB35, 18 H incubation): 10 µg/mL
MIC ([9]; COB35, 24 H incubation): 40 µg/mL
MIC ([9]; COB35, 48 H incubation): 40 µg/mL
MIC ([10]; 38691, 24 H incubation): 0.1 µg/mL
MIC ([10]; 38691, 48 H incubation): 0.1 µg/mL
MIC (Escherichia coli 156; 18 H incubation): 0.4 µg/mL
MIC (Escherichia coli 156; 24 H incubation): 0.6 µg/mL
MIC (Escherichia coli 156; 48 H incubation): 1 µg/mL
MIC (Escherichia coli 9 911; 9911, 18 H incubation): 0.6 µg/mL
MIC (Escherichia coli 9 911; 9911, 24 H incubation): 0.6 µg/mL
MIC (Escherichia coli 9 911; 9911, 48 H incubation): 0.2 µg/mL
MIC ([11]; 18 H incubation): 1 µg/mL
MIC ([11]; 24 H incubation): 5 µg/mL
MIC ([11]; 48 H incubation): 10 µg/mL
